Assay results from patent publication US20250333432A1, “NOVEL COMPOUND AND USE OF SAME” (NAGASE & CO., LTD., priority 2020, published 2025).

Key:
[1] = system: antioxidant responsive element transcription activity (pGL3-GSTYaARE-Luciferase) in ARPE-19 cells; experiment: Antioxidant responsive element luciferase reporter assay in ARPE-19 cells; assay type: cell-based; details: for antioxidant effect in comparison with trehangelin A: ARE luciferase reporter, comparison with known substance trehangelin A; for antioxidant effect: conclusion from luciferase activity vs control, FIG. 1
Protocol: The physiological functions of the compounds obtained above were evaluated. The evaluation of the physiological functions was carried out by using the tool described in Carnosic acid, a catechol-type electrophilic compound, protects neurons both in vitro and in vivo through activation of the Keap1/Nrf2 pathway via S-alkylation of targeted cysteines on Keap1. Takumi Satoh et al., Journal of Neurochemistry. Vol. 104, pp. 1116-1131, (2008).
Briefly, ARPE-19 cells were seeded in 24-well plates using a 10% FBS-DMEM/F12 medium (manufactured by GIBCO) so as to be 50% confluent. After 24 hours, (1) a mixed solution (vector solution) of 0.5 μg of pGL3-GSTYaARE-Luciferase vector, 0.5 μg of pSV-betaGAL vector, and 50 μL of Opti-MEM I (manufactured by GIBCO) per well and (2) a mixed solution (lipofectamine 2000) of 2 μL of lipofectamine 2000 (manufactured by Thermo Fisher) and 50 μL of Opti-MEM I (manufactured by GIBCO) per well were prepared and left at room temperature for 5 minutes. The vector solution and the lipofectamine 2000 solution were mixed and left at room temperature for 20 minutes. The resulting mixed solution was added to cultured cells (ARPE-19 cells) (100 μL per well) and cultured in a CO2 incubator for 6 hours. Subsequently, the culture medium was replaced with a new 10% FBS-DMEM/F12 medium (0.5 mL/well), followed by culturing for 18 hours. The culture medium was then replaced with a new 10% FBS-DMEM/F12 medium (0.3 mL/well) or a 10% FBS-DMEM/F12 medium (0.3 mL/well) containing […] of various trehangelin derivatives, followed by culturing for 24 hours. After the medium was removed, 150 μL of PassiveLysisBuffer (manufactured by Promega) was added to prepare a cell lysis solution.
100 μL of each cell lysis solution was placed on a 96-well plate, and 100 μL of β-GAL assay kit solution (manufactured by Promega) was added, followed by incubation at 37° C. for 3 hours. Then, β-GAL activity was confirmed by measuring the absorbance at 405 nm.
20 μL of each cell lysis solution was placed in a 96-well plate which differs from the above 96-well plate, and 100 μL of each luciferase assay kit solution (manufactured by Promega) was added. Then, luciferase activity was measured by measuring the luminescence. The obtained result on the luciferase activity was corrected by dividing them by the result on the β-GAL activity, and the antioxidant responsive element transcription activity was calculated.

[2] = Solubility in solvent (methanol); assay type: physicochemical

Row | Solubility in solvent [2] | SMILES | antioxidant effect in comparison with trehangelin A [1] | antioxidant effect [1]
1 | Poorly soluble in methanol | C/C=C(/C)C(=O)OC1C(O)C(CO)OC(OC2OC(CO)C(O)C(OC(=O)/C(C)=C\CC)C2O)C1O (centres unmarked) [3-O-(2-methyl-2-butenoyl)-3′-O-(2-methyl-2-pentenoyl)trehalose] | higher antioxidant effect than trehangelin A | have an antioxidant effect
2 | Poorly soluble in methanol | C/C=C(/C)C(=O)OC1C(O)C(CO)OC(OC2OC(CO)C(O)C(OC(C)=O)C2O)C1O (centres unmarked) [3-O-acetyl-3′-O-angeloyltrehalose] | – | have an antioxidant effect
3 | Poorly soluble in methanol | C/C=C\C(=O)OC1C(O)C(CO)OC(OC2OC(CO)C(O)C(OC(=O)/C(C)=C\C)C2O)C1O (centres unmarked) [3-O-angeloyl-3′-O-isocrotonyltrehalose] | higher antioxidant effect than trehangelin A | have an antioxidant effect
4 | Poorly soluble in methanol | C/C=C(/C)C(=O)OC1C(O)C(CO)OC(OC2OC(CO)C(O)C(O)C2O)C1O (centres unmarked) [3-O-angeloyltrehalose] | almost the same level of antioxidant effect as that of trehangelin A | have an antioxidant effect
